Assay results as given in the supplement of paper PMC10307832.

Tests used:
Experiment in all cases: relative viability (nuclei count vs DMSO), 5 days (fraction); higher = more cells survive
HCC-366 = test system: HCC-366
In short: (§1)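 Nuclei were stained with Hoechst during a one-step fixation (final 0.05% Triton X-100, 1% formaldehyde, 1 ug/ml Hoechst) carried out 5 days after dosing, then counted on 4× images. The cells, lung cancer lines in 1536-well plates, had been dosed by pin tool the day after seeding with one drug alone or a fixed anchor-drug dose plus five library-drug doses (not always all listed) in √10 steps. Relative viability is the nuclei count in treated wells divided by that in vehicle wells, and each value is the median of duplicate plates.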

LU99A = test system: LU99A
In short: as §1

ABC-1 = test system: ABC-1
In short: as §1

NCI-H2228 = test system: NCI-H2228
In short: as §1

HCC-78 = test system: HCC-78
In short: as §1

ChaGo-K-1 = test system: ChaGo-K-1
In short: as §1

NCI-H1651 = test system: NCI-H1651
In short: as §1

NCI-H2170 = test system: NCI-H2170
In short: as §1

RERF-LC-KJ = test system: RERF-LC-KJ
In short: as §1

LOU-NH91 = test system: LOU-NH91
In short: as §1

NCI-H1755 = test system: NCI-H1755
In short: as §1

LC-2-ad = test system: LC-2-ad
In short: as §1

PC-3 [JPC-3] = test system: PC-3 [JPC-3]
In short: as §1

CAL-12T = test system: CAL-12T
In short: as §1

NCI-H1734 = test system: NCI-H1734
In short: as §1

NCI-H1944 = test system: NCI-H1944
In short: as §1

NCI-H1395 = test system: NCI-H1395
In short: as §1

NCI-H1793 = test system: NCI-H1793
In short: as §1

NCI-H460 = test system: NCI-H460
In short: as §1

NCI-H2087 = test system: NCI-H2087
In short: as §1

NCI-H2405 = test system: NCI-H2405
In short: as §1

UMC-11 = test system: UMC-11
In short: as §1

NCI-H3122 = test system: NCI-H3122
In short: as §1

SMILES: CC1(C)CCC(c2ccc(Cl)cc2)=C(CN2CCN(c3ccc(C(=O)NS(=O)(=O)c4ccc(N[C@H](CCN5CCOCC5)CSc5ccccc5)c(S(=O)(=O)C(F)(F)F)c4)cc3)CC2)C1 [Navitoclax] + N=C(N)NC(=N)NCCc1ccccc1 [Phenformin] (partner 250 µM)
- relative viability (HCC-366; first compound 0.005 µM): 0.708
- relative viability (HCC-366; first compound 0.01581 µM): 0.616
- relative viability (HCC-366; first compound 0.1581 µM): 0.619
- relative viability (HCC-366; first compound 0.5 µM): 0.588
- relative viability (LU99A; first compound 0.005 µM): 0.878
- relative viability (LU99A; first compound 0.01581 µM): 0.993
- relative viability (LU99A; first compound 0.05 µM): 0.726
- relative viability (LU99A; first compound 0.1581 µM): 0.829
- relative viability (LU99A; first compound 0.5 µM): 0.928
- relative viability (ABC-1; first compound 0.005 µM): 0.245
- relative viability (ABC-1; first compound 0.01581 µM): 0.292
- relative viability (ABC-1; first compound 0.05 µM): 0.277
- relative viability (ABC-1; first compound 0.1581 µM): 0.257
- relative viability (ABC-1; first compound 0.5 µM): 0.215
- relative viability (NCI-H2228; first compound 0.005 µM): 0.35
- relative viability (NCI-H2228; first compound 0.01581 µM): 0.385
- relative viability (NCI-H2228; first compound 0.1581 µM): 0.276
- relative viability (NCI-H2228; first compound 0.5 µM): 0.418
- relative viability (HCC-78; first compound 0.005 µM): 0.727
- relative viability (HCC-78; first compound 0.01581 µM): 0.692
- relative viability (HCC-78; first compound 0.1581 µM): 0.645
- relative viability (HCC-78; first compound 0.5 µM): 0.75
- relative viability (ChaGo-K-1; first compound 0.005 µM): 0.459
- relative viability (ChaGo-K-1; first compound 0.01581 µM): 0.502
- relative viability (ChaGo-K-1; first compound 0.05 µM): 0.397
- relative viability (ChaGo-K-1; first compound 0.1581 µM): 0.48
- relative viability (ChaGo-K-1; first compound 0.5 µM): 0.501
- relative viability (NCI-H1651; first compound 0.005 µM): 0.3
- relative viability (NCI-H1651; first compound 0.01581 µM): 0.3
- relative viability (NCI-H1651; first compound 0.05 µM): 0.298
- relative viability (NCI-H1651; first compound 0.1581 µM): 0.353
- relative viability (NCI-H1651; first compound 0.5 µM): 0.295
- relative viability (NCI-H2170; first compound 0.005 µM): 0.442
- relative viability (NCI-H2170; first compound 0.01581 µM): 0.47
- relative viability (NCI-H2170; first compound 0.05 µM): 0.391
- relative viability (NCI-H2170; first compound 0.1581 µM): 0.42
- relative viability (NCI-H2170; first compound 0.5 µM): 0.347
- relative viability (RERF-LC-KJ; first compound 0.005 µM): 0.41
- relative viability (RERF-LC-KJ; first compound 0.01581 µM): 0.353
- relative viability (RERF-LC-KJ; first compound 0.05 µM): 0.428
- relative viability (RERF-LC-KJ; first compound 0.1581 µM): 0.381
- relative viability (RERF-LC-KJ; first compound 0.5 µM): 0.437
- relative viability (LOU-NH91; first compound 0.005 µM): 0.8
- relative viability (LOU-NH91; first compound 0.01581 µM): 0.693
- relative viability (LOU-NH91; first compound 0.05 µM): 0.636
- relative viability (LOU-NH91; first compound 0.1581 µM): 0.652
- relative viability (LOU-NH91; first compound 0.5 µM): 0.427
- relative viability (NCI-H1755; first compound 0.005 µM): 0.639
- relative viability (NCI-H1755; first compound 0.01581 µM): 0.659
- relative viability (NCI-H1755; first compound 0.05 µM): 0.575
- relative viability (NCI-H1755; first compound 0.1581 µM): 0.521
- relative viability (NCI-H1755; first compound 0.5 µM): 0.43
- relative viability (LC-2-ad; first compound 0.005 µM): 0.577
- relative viability (LC-2-ad; first compound 0.01581 µM): 0.653
- relative viability (LC-2-ad; first compound 0.05 µM): 0.58
- relative viability (LC-2-ad; first compound 0.1581 µM): 0.505
- relative viability (LC-2-ad; first compound 0.5 µM): 0.572
- relative viability (PC-3 [JPC-3]; first compound 0.005 µM): 0.466
- relative viability (PC-3 [JPC-3]; first compound 0.01581 µM): 0.48
- relative viability (PC-3 [JPC-3]; first compound 0.05 µM): 0.516
- relative viability (PC-3 [JPC-3]; first compound 0.1581 µM): 0.453
- relative viability (PC-3 [JPC-3]; first compound 0.5 µM): 0.41
- relative viability (CAL-12T; first compound 0.005 µM): 0.527
- relative viability (CAL-12T; first compound 0.01581 µM): 0.655
- relative viability (CAL-12T; first compound 0.05 µM): 0.6
- relative viability (CAL-12T; first compound 0.1581 µM): 0.503
- relative viability (CAL-12T; first compound 0.5 µM): 0.582
- relative viability (NCI-H1734; first compound 0.005 µM): 0.367
- relative viability (NCI-H1734; first compound 0.01581 µM): 0.461
- relative viability (NCI-H1734; first compound 0.1581 µM): 0.371
- relative viability (NCI-H1734; first compound 0.5 µM): 0.341
- relative viability (NCI-H1944; first compound 0.005 µM): 0.183
- relative viability (NCI-H1944; first compound 0.01581 µM): 0.191
- relative viability (NCI-H1944; first compound 0.05 µM): 0.182
- relative viability (NCI-H1944; first compound 0.1581 µM): 0.211
- relative viability (NCI-H1944; first compound 0.5 µM): 0.146
- relative viability (NCI-H1395; first compound 0.005 µM): 0.461
- relative viability (NCI-H1395; first compound 0.01581 µM): 0.501
- relative viability (NCI-H1395; first compound 0.05 µM): 0.451
- relative viability (NCI-H1395; first compound 0.1581 µM): 0.455
- relative viability (NCI-H1395; first compound 0.5 µM): 0.497
- relative viability (NCI-H1793; first compound 0.005 µM): 0.527
- relative viability (NCI-H1793; first compound 0.01581 µM): 0.445
- relative viability (NCI-H1793; first compound 0.1581 µM): 0.309
- relative viability (NCI-H1793; first compound 0.5 µM): 0.313
- relative viability (NCI-H460; first compound 0.005 µM): 0.509
- relative viability (NCI-H460; first compound 0.01581 µM): 0.512
- relative viability (NCI-H460; first compound 0.05 µM): 0.529
- relative viability (NCI-H460; first compound 0.1581 µM): 0.522
- relative viability (NCI-H460; first compound 0.5 µM): 0.515
- relative viability (NCI-H2087; first compound 0.005 µM): 0.475
- relative viability (NCI-H2087; first compound 0.01581 µM): 0.452
- relative viability (NCI-H2087; first compound 0.1581 µM): 0.407
- relative viability (NCI-H2087; first compound 0.5 µM): 0.428
- relative viability (NCI-H2405; first compound 0.005 µM): 0.413
- relative viability (NCI-H2405; first compound 0.01581 µM): 0.44
- relative viability (NCI-H2405; first compound 0.05 µM): 0.376
- relative viability (NCI-H2405; first compound 0.1581 µM): 0.4
- relative viability (NCI-H2405; first compound 0.5 µM): 0.303
- relative viability (UMC-11; first compound 0.005 µM): 0.303
- relative viability (UMC-11; first compound 0.01581 µM): 0.323
- relative viability (UMC-11; first compound 0.05 µM): 0.35
- relative viability (UMC-11; first compound 0.1581 µM): 0.242
- relative viability (UMC-11; first compound 0.5 µM): 0.273
- relative viability (NCI-H3122; first compound 0.005 µM): 0.402
- relative viability (NCI-H3122; first compound 0.01581 µM): 0.423
- relative viability (NCI-H3122; first compound 0.05 µM): 0.306
- relative viability (NCI-H3122; first compound 0.1581 µM): 0.348
- relative viability (NCI-H3122; first compound 0.5 µM): 0.391
